Test results published in patent publication US12714721B2, “Methods of treatment of a cytokine storm” (Loma Linda University Health, priority 2020, dated 2026).

Test system: LPS-treated animals
Test: Survival study of LPS-treated animals with teriflunomide
Type: in vivo
Conditions: 20 mg/kg of LPS i.p. and 4 mg of teriflunomide
Procedure: A survival study was performed with sixteen animals per group of LPS-treated animals following no treatment and treatment with teriflunomide. The control group received 20 mg/kg of LPS i.p. and no treatment; whereas the teriflunomide group received 20 mg/kg of LPS and 4 mg of teriflunomide. None of the control animals lived up to 24 hours, whereas 6 of the teriflunomide treat animals lived out to 96 hours at which time they appeared normal. The P value for the difference was less than 0.0021. FIG. 20 is a graphical representation of the survival of LPS-treated animals following no treatment and treatment with teriflunomide. All of the animals were treated with 20 mg/kg of LPS i.p. Kaplan-Meier survival in response to LPS administration. Comparison of the trend of survival curve was done using the log-rank (Mantel-Cox) test (recommended), and ** p<0.01.

For `C/C(O)=C(\C#N)C(=O)Nc1ccc(C(F)(F)F)cc1` [teriflunomide], the Median survival (Kaplan-Meier) was 48.00 and the “animals that lived out to 96 hours” value (sixteen animals per group) was 6.
